Measured values reported in ChEMBL document CHEMBL1201861, “Genomics of Drug Sensitity in Cancer screening data, Wellcome Trust Sanger Institute”.
Values joined by “and” are separate entries in the source; they are usually repeats but may differ in a detail not shown here. Equal values may be shown once.

Experiments:
Assay in all cases: cells
[1] = system: COLO-800; format: functional, cell-based, Homo sapiens;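 note: growth inhibition of COLO-800 cells, read out with a cell viability assay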
Description: SANGER: Inhibition of human COLO-800 cell growth in a cell viability assay.

[2] = system: D283 Med; format: functional, cell-based, Homo sapiens
Description: SANGER: Inhibition of human D-283MED cell growth in a cell viability assay.

[3] = system: DK-MG; format: functional, cell-based, Homo sapiens;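 note: growth inhibition of DK-MG cells, read out with a cell viability assay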
Description: SANGER: Inhibition of human DK-MG cell growth in a cell viability assay.

[4] = system: ES6; format: functional, cell-based, Homo sapiens;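 note: growth inhibition of human ES6 cells, read out with a cell viability assay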
Description: SANGER: Inhibition of human ES6 cell growth in a cell viability assay.

[5] = system: EW-11; format: functional, cell-based, Homo sapiens;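 note: growth inhibition of human EW-11 cells, measured with a cell viability assay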
Description: SANGER: Inhibition of human EW-11 cell growth in a cell viability assay.

[6] = system: EW-3; format: functional, cell-based; settings: Homo sapiens;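 note: cell viability assay read-out, IC50 reflects inhibition of growth of the EW-3 cells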
Description: SANGER: Inhibition of human EW-3 cell growth in a cell viability assay.

[7] = system: GAK; format: functional, cell-based, Homo sapiens;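 note: cell growth inhibition read out by a cell viability assay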
Description: SANGER: Inhibition of human GAK cell growth in a cell viability assay.

[8] = system: HCC1937; format: functional, cell-based, Homo sapiens;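 note: growth inhibition measured with a cell viability read-out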
Description: SANGER: Inhibition of human HCC1937 cell growth in a cell viability assay.

[9] = system: HCC1954; format: functional, cell-based, Homo sapiens;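 note: growth inhibition of human HCC1954 cells, read out with a cell viability assay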
Description: SANGER: Inhibition of human HCC1954 cell growth in a cell viability assay.

[10] = system: HCC2218; format: functional, cell-based; settings: Homo sapiens;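 note: cell viability assay read-out, with IC50 given as the concentration that inhibits growth of the cell line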
Description: SANGER: Inhibition of human HCC2218 cell growth in a cell viability assay.

[11] = system: Huh-7; format: functional, cell-based, Homo sapiens;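 note: HuH-7 cell growth inhibition, read out with a cell viability assay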
Description: SANGER: Inhibition of human HuH-7 cell growth in a cell viability assay.

[12] = system: IA-LM; format: functional, cell-based, Homo sapiens;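 note: cell viability assay measuring growth inhibition of human IA-LM cells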
Description: SANGER: Inhibition of human IA-LM cell growth in a cell viability assay.

[13] = system: IST-SL1; format: functional, cell-based, Homo sapiens;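 note: growth inhibition of human IST-SL1 cells, read out with a cell viability assay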
Description: SANGER: Inhibition of human IST-SL1 cell growth in a cell viability assay.

[14] = system: KE-37; format: functional, cell-based; settings: Homo sapiens;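 note: growth inhibition of KE-37 cells, read out with a cell viability assay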
Description: SANGER: Inhibition of human KE-37 cell growth in a cell viability assay.

[15] = system: KLE; format: functional, cell-based, Homo sapiens;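 note: growth inhibition of human KLE cells, read out with a cell viability assay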
Description: SANGER: Inhibition of human KLE cell growth in a cell viability assay.

[16] = system: KS-1; format: functional, cell-based, Homo sapiens;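 note: growth inhibition of KS-1 cells, read out with a cell viability assay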
Description: SANGER: Inhibition of human KS-1 cell growth in a cell viability assay.

[17] = system: LAN-6; format: functional, cell-based, Homo sapiens;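 note: growth inhibition of LAN-6 cells, determined with a cell viability assay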
Description: SANGER: Inhibition of human LAN-6 cell growth in a cell viability assay.

[18] = system: LS-123; format: functional, cell-based, Homo sapiens
Description: SANGER: Inhibition of human LS-123 cell growth in a cell viability assay.

[19] = system: MC-IXC; format: functional, cell-based, Homo sapiens;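 note: growth inhibition of MC-IXC cells, read out with a cell viability assay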
Description: SANGER: Inhibition of human MC-IXC cell growth in a cell viability assay.

[20] = system: MDA-MB-453; format: functional, cell-based, Homo sapiens
Description: SANGER: Inhibition of human MDA-MB-453 cell growth in a cell viability assay.

[21] = system: MEG-01; format: functional, cell-based; settings: Homo sapiens;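 note: growth inhibition of MEG-01 cells, read out by a cell viability assay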
Description: SANGER: Inhibition of human MEG-01 cell growth in a cell viability assay.

[22] = system: MFH-ino; format: functional, cell-based; settings: Homo sapiens;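 note: growth inhibition of human MFH-ino cells, read out by a cell viability assay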
Description: SANGER: Inhibition of human MFH-ino cell growth in a cell viability assay.

[23] = system: MKN-1; format: functional, cell-based, Homo sapiens;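 note: growth inhibition of human MKN1 cells, read out by a cell viability measurement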
Description: SANGER: Inhibition of human MKN1 cell growth in a cell viability assay.

[24] = system: NCI-H1437; format: functional, cell-based, Homo sapiens;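 note: growth inhibition of human NCI-H1437 cells, read out by a cell viability assay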
Description: SANGER: Inhibition of human NCI-H1437 cell growth in a cell viability assay.

[25] = system: NCI-H1581; format: functional, cell-based, Homo sapiens;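 note: cell growth inhibition read out by a viability assay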
Description: SANGER: Inhibition of human NCI-H1581 cell growth in a cell viability assay.

[26] = system: NCI-H2122; format: functional, cell-based, Homo sapiens;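 note: growth inhibition of the cells, read out with a cell viability assay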
Description: SANGER: Inhibition of human NCI-H2122 cell growth in a cell viability assay.

[27] = system: NCI-H2347; format: functional, cell-based, Homo sapiens;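 note: growth inhibition of the cell line, read out with a cell viability assay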
Description: SANGER: Inhibition of human NCI-H2347 cell growth in a cell viability assay.

[28] = system: NY; format: functional, cell-based, Homo sapiens
Description: SANGER: Inhibition of human NY cell growth in a cell viability assay.

[29] = system: OVCAR-5; format: functional, cell-based, Homo sapiens;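 note: growth inhibition of human OVCAR-5 cells, read out with a cell viability assay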
Description: SANGER: Inhibition of human OVCAR-5 cell growth in a cell viability assay.

[30] = system: RD; format: functional, cell-based, Homo sapiens
Description: SANGER: Inhibition of human RD cell growth in a cell viability assay.

[31] = system: RPMI-2650; format: functional, cell-based, Homo sapiens
Description: SANGER: Inhibition of human RPMI-2650 cell growth in a cell viability assay.

[32] = system: SBC-1; format: functional, cell-based; settings: Homo sapiens;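 note: cell viability assay measuring growth inhibition of the SBC-1 cell line, IC50 being the concentration that halves growth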
Description: SANGER: Inhibition of human SBC-1 cell growth in a cell viability assay.

[33] = system: SF-268; format: functional, cell-based, Homo sapiens;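 note: growth inhibition of SF-268 cells determined with a cell viability assay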
Description: SANGER: Inhibition of human SF268 cell growth in a cell viability assay.

[34] = system: SK-LMS-1; format: functional, cell-based, Homo sapiens;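 note: growth inhibition of human SK-LMS-1 cells, read out with a cell viability assay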
Description: SANGER: Inhibition of human SK-LMS-1 cell growth in a cell viability assay.

[35] = system: SK-PN-DW; format: functional, cell-based; settings: Homo sapiens;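 note: growth inhibition measured with a viability assay on these cells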
Description: SANGER: Inhibition of human SK-PN-DW cell growth in a cell viability assay.

[36] = system: SN12C; format: functional, cell-based, Homo sapiens;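 note: growth inhibition of human SN12C cells, measured by a cell viability assay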
Description: SANGER: Inhibition of human SN12C cell growth in a cell viability assay.

[37] = system: SNU-449; format: functional, cell-based, Homo sapiens
Description: SANGER: Inhibition of human SNU-449 cell growth in a cell viability assay.

[38] = system: SAOS-2; format: functional, cell-based, Homo sapiens;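 note: growth inhibition of human Saos-2 cells determined by a cell viability assay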
Description: SANGER: Inhibition of human Saos-2 cell growth in a cell viability assay.

[39] = system: 5637; format: functional, cell-based, Homo sapiens
Description: SANGER: Inhibition of human 5637 cell growth in a cell viability assay.

[40] = system: 639-V; format: functional, cell-based, Homo sapiens;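 note: growth inhibition of 639-V cells, read out with a cell viability assay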
Description: SANGER: Inhibition of human 639-V cell growth in a cell viability assay.

[41] = system: A388; format: functional, cell-based, Homo sapiens;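 note: growth inhibition of human A388 cells, read out with a cell viability assay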
Description: SANGER: Inhibition of human A388 cell growth in a cell viability assay.

[42] = system: A4-Fuk; format: functional, cell-based; settings: Homo sapiens;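 note: growth inhibition of A4-Fuk cells, read out by a cell viability assay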
Description: SANGER: Inhibition of human A4-Fuk cell growth in a cell viability assay.

[43] = system: ALL-PO; format: functional, cell-based; settings: Homo sapiens;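 note: growth inhibition of ALL-PO cells, read out by a cell viability assay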
Description: SANGER: Inhibition of human ALL-PO cell growth in a cell viability assay.

[44] = system: AN3-CA; format: functional, cell-based; settings: Homo sapiens;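 note: growth inhibition of human AN3-CA cells measured by a cell viability assay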
Description: SANGER: Inhibition of human AN3-CA cell growth in a cell viability assay.

[45] = system: BHT-101; format: functional, cell-based, Homo sapiens
Description: SANGER: Inhibition of human BHT-101 cell growth in a cell viability assay.

[46] = system: C3A; format: functional, cell-based, Homo sapiens;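 note: growth inhibition of C3A human cells, quantified with a cell viability readout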
Description: SANGER: Inhibition of human C3A cell growth in a cell viability assay.

[47] = system: CAL-120; format: functional, cell-based, Homo sapiens;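 note: cell growth inhibition, read out as cell viability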
Description: SANGER: Inhibition of human CAL-120 cell growth in a cell viability assay.

[48] = system: CAL-51; format: functional, cell-based, Homo sapiens;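 note: human CAL-51 cell line, growth inhibition read out via a cell viability assay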
Description: SANGER: Inhibition of human CAL-51 cell growth in a cell viability assay.

[49] = system: VA-ES-BJ; format: functional, cell-based, Homo sapiens;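 note: growth inhibition of the VA-ES-BJ cell line, read out by a cell viability assay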
Description: SANGER: Inhibition of human VA-ES-BJ cell growth in a cell viability assay.

[50] = system: WM-115; format: functional, cell-based, Homo sapiens
Description: SANGER: Inhibition of human WM-115 cell growth in a cell viability assay.

[51] = system: CAMA-1; format: functional, cell-based, Homo sapiens;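 note: growth inhibition of CAMA-1 cells, read out with a cell viability assay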
Description: SANGER: Inhibition of human CAMA-1 cell growth in a cell viability assay.

[52] = system: SW982; format: functional, cell-based; settings: Homo sapiens;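 note: growth inhibition of SW982 cells, read out with a cell viability assay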
Description: SANGER: Inhibition of human SW982 cell growth in a cell viability assay.

Measured: IC50

Cc1cc([C@@H](C)Nc2ccccc2C(=O)O)c2nc(N3CCOCC3)cc(=O)n2c1 [AZD-6482]
4.62 µM: [34]; sk-lms-1
> 5.12 µM and 2.33 µM: [20]; mda-mb-453
3.07 µM: [34]; Homo sapiens, SK-LMS-1
> 5.12 µM: [1]; colo-800 | [2]; d283 med | [3]; dk-mg | [4]; Homo sapiens, ES6 | [4]; es6 | [5]; ew-11 | [6] | [7]; gak | [8]; hcc1937 | [9]; hcc1954 | [10] | [11]; Homo sapiens, Huh-7 | [11]; huh-7 | [12]; ia-lm | [13]; ist-sl1 | [14] | [15]; kle | [16]; Homo sapiens, KS-1 | [16]; ks-1 | [17]; lan-6 | [18]; ls-123 | [19]; Homo sapiens, MC-IXC | [19]; mc-ixc | [21] | [22] | [23]; mkn-1 | [24]; nci-h1437 | [25]; nci-h1581 | [26]; nci-h2122 | [27]; Homo sapiens, NCI-H2347 | [27]; nci-h2347 | [28]; Homo sapiens, NY | [28]; ny | [29]; ovcar-5 | [30]; Homo sapiens, RD | [30]; rd | [31]; Homo sapiens, RPMI-2650 | [31]; rpmi-2650 | [32] | [33]; sf-268 | [35] | [36]; sn12c | [37]; Homo sapiens, SNU-449 | [37]; snu-449 | [38]; Homo sapiens, SAOS-2 | [38]; saos-2 | [39] | [39]; Homo sapiens | [41]; a388 | [43] | [46]; c3a | [47]; cal-120 | [48]; cal-51 | [49]; Homo sapiens, VA-ES-BJ | [49]; va-es-bj | [50]; wm-115
1.63 µM and 4.78 µM: [40]; 639-v
3.08 µM: [42]
3.59 µM: [44]
> 5.12 µM and 1.16 µM: [45]; bht-101
1.2 µM and > 5.12 µM: [51]; cama-1
5.06 µM: [9]; Homo sapiens, HCC1954

CN(Cc1cnc2nc(N)nc(N)c2n1)c1ccc(C(=O)N[C@@H](CCC(=O)O)C(=O)O)cc1 [METHOTREXATE]
0.0155 µM: [14]
0.151 µM: [26]; Homo sapiens, NCI-H2122
0.0382 µM: [42]
> 0.2 µM: [2]; Homo sapiens, D283 Med | [3]; Homo sapiens, DK-MG | [4]; Homo sapiens, ES6 | [5]; Homo sapiens, EW-11 | [7]; Homo sapiens, GAK | [8]; Homo sapiens, HCC1937 | [9]; Homo sapiens, HCC1954 | [11]; Homo sapiens, Huh-7 | [12]; Homo sapiens, IA-LM | [13]; Homo sapiens, IST-SL1 | [15]; Homo sapiens, KLE | [16]; Homo sapiens, KS-1 | [17]; Homo sapiens, LAN-6 | [18]; Homo sapiens, LS-123 | [19]; Homo sapiens, MC-IXC | [20]; Homo sapiens, MDA-MB-453 | [23]; Homo sapiens, MKN-1 | [24]; Homo sapiens, NCI-H1437 | [25]; Homo sapiens, NCI-H1581 | [27]; Homo sapiens, NCI-H2347 | [28]; Homo sapiens, NY | [29]; Homo sapiens, OVCAR-5 | [30]; Homo sapiens, RD | [31]; Homo sapiens, RPMI-2650 | [32] | [33]; Homo sapiens, SF-268 | [35] | [36]; Homo sapiens, SN12C | [37]; Homo sapiens, SNU-449 | [52] | [38]; Homo sapiens, SAOS-2 | [39]; Homo sapiens | [40]; Homo sapiens, 639-V | [41]; Homo sapiens, A388 | [44] | [45]; Homo sapiens, BHT-101 | [46]; Homo sapiens, C3A | [47]; Homo sapiens, CAL-120 | [48]; Homo sapiens, CAL-51 | [49]; Homo sapiens, VA-ES-BJ | [50]; Homo sapiens, WM-115 | [51]; Homo sapiens, CAMA-1
0.0994 µM: [21]
0.00586 µM: [43]
0.124 µM: [1]; Homo sapiens, COLO-800
